US5521061A, “Enhancement of probe signal in nucleic acid-mediated in-situ hybridization studies” (Aprogenex, Inc., priority 1992, dated 1996)

Columns and labels:
α-satellite DNA = assay: Liquid in situ hybridization with flow cytometry, DMSO plus squalane plus additional compound (Example 5), α-satellite DNA and NR probes; assay type: cell-based; conditions: for NR Probe, mean LFL1 / α-SAT Probe, mean LFL1 / Ratio α-SAT/NR (ratio of mean LFL1): 5% additional compound with 5% squalane and 9% DMSO; for NR Probe, mean LFL1: DMSO-only control 0.175; for α-SAT Probe, mean LFL1: DMSO-only control 3.829; for Ratio α-SAT/NR (ratio of mean LFL1): DMSO-only control 22; for Increase of DNA probe signal intensity compared to 9% DMSO alone: DMSO plus squalane plus the additional compound
Description: (§1) A Coulter Profile II flow cytometer was used for flow cytometry. With FITC as the probe dye, the filter for LFL3 was a 635 nm long pass filter and the filter for LFL1 was a 540 bp filter; the excitation wavelength was 488 nm. PMT1 and PMT3 settings were adjusted as required. A typical useful setting when fluorescein is the dye moiety is to have a PMT1 setting of 1100, a PMT3 setting of 900, and color compensation (PMT1, PMT3) of 15 percent.
(§2) Liquid in Situ Cell Preparation and Hybridization Protocol
(§3) 1. Cells were fixed in solution F, then resuspended in 2x SSC.
(§4) 2. The cells were spun out of solution and resuspended in an assay solution (consisting of the hybridization cocktail HC alone or in combination with a compound or compounds being tested as an enhancer.)
(§5) 3. After 30 min. at 42° C., the cells were washed in wash solution #1 preheated to 42° C. by centrifuging them out of the assay solution.
(§6) 4. Cells were next washed in wash solution #2 preheated to 42° C.
(§7) 5. Cells were resuspended in a 1X PBS solution containing 0.002% trypan blue as a counterstain.
(§8) 6. Cells were run on a flow cytometer and a "Count vs. LFL1" histogram was generated. ("Count" refers to cell count.) This histogram was used as the basis for determining the mean LFL1.
The Liquid In Situ Cell Preparation and Hybridization Protocol was followed.
The "α-satellite" DNA probe is a target specific probe specific α-satellite DNA. Fluorescence obtained with it represents the sum of fluorescence from target-bound probe, non-specifically bound probe and autofluorescence from cellular molecules.
The effect of a combination of DMSO and squalane on the probe signal was measured as was that combination further enhanced with a third compound.
In this Example, in all but two cases, the hybridization cocktail consisted of 9 volumes of HC-DMSO, a half volume of squalane, and a half volume of an additional compound. In one case, the additional compound was replaced by water, so that the hybridization compound consisted of 9 volumes of HC-DMSO, a half volume of squalane, and a half volume of water. In the control sample, the cocktail consisted of nine volumes of HC-DMSO and one volume of water. As a result, in all samples, there was 9 percent DMSO (v/v). When present, squalane was present at 5 percent. When present, the additional compound was present at 5%.
The ratio, α-SAT/NR, is the ratio of the mean LFL1 for the α-satellite DNA probe ([…]) to the mean LFL1 for the NR probe.

Hela cells = assay: Liquid in situ hybridization with flow cytometry, DMSO plus additional compound (Example 4), 28S RNA and NR probes; assay type: cell-based; conditions: for 28S RNA Probe, mean LFL1 / NR Probe, mean LFL1 / Ratio 28S RNA/NR (ratio of mean LFL1): 10% additional compound with 9% DMSO; for 28S RNA Probe, mean LFL1: FITC 28S RNA probe, water control 6.070, average of four experiments; for NR Probe, mean LFL1: FITC NR probe (non-specific binding and autofluorescence), water control 0.137; for Ratio 28S RNA/NR (ratio of mean LFL1): water control 44; for Signal brightness compared to nine percent DMSO alone: additional compound in combination with nine percent DMSO
Description: as §1, §2, §3, §4, §5, §6, §7, §8
The effect on probe signal intensity of adding, in addition to DMSO, additional compounds to the assay solution was determined in an in situ liquid hybridization assay. The data was analyzed by flow cytometry.
The Liquid In Situ Cell Preparation and Hybridization Protocol was followed. The cells used were Hela cells. The probes used were a 28S RNA probe (SEQ ID NO: 1) and an NR probe.
The 28S RNA probe (SEQ ID NO: 1) is a target-specific probe specific for ribosomal RNA fluorescence obtained with it represents the sum of fluorescence from target-bound probe, non-specifically bound probe and autofluorescence from cellular molecules. The NR probe (SEQ ID NO: 2) is specific for a plant nucleic acid sequence and, in the current Example, the fluorescence obtained with it represent the sum of fluorescence from non-specifically bound probe and autofluorescence.
In this experiment, the hybridization cocktail consisted of nine volumes of HC-DMSO plus one volume of additional compound. In the control sample, one volume of water replaced the one volume of additional compound. As a result, in all samples, the concentration of DMSO was 9 percent (v/v).
The ratio, 28S/NR, is the ratio of the mean LFL1 observed with the 28S RNA probe (SEQ ID NO: 1) to the mean LFL1 observed with the NR probe (SEQ ID NO: 2). The results in the "28S RNA probe" and "NR probe" columns give the mean LFL1 observed with the 28S RNA and NR probes, respectively (SEQ ID NO: 1 and SEQ ID NO: 2, respectively).

Hepg 2 cells = assay: Slide in situ hybridization, DMSO plus one additional compound (Example 2), HYR probe; assay type: cell-based, human; conditions: 10% (v/v) additional compound with 9% DMSO; slide rating x 0.5, water control = 2; average of four experiments
Method: Slide in situ Cell Preparation and Hybridization Protocol
1) Cells were suspended in a fixative (3 vol ethanol plus 1 vol methanol) and transferred to glass slides by centrifugation using a Cytospin apparatus.
2) The assay solution (consisting of the hybridization cocktail HC alone or mixed with a compound or compounds being tested as an enhancer) with the DNA probe (25 ul) was placed over the cells and covered with a coverslip.
3) The slide was heated at 90° C. for 5 minutes for DNA denaturation, then incubated at 46° C. for 30 minutes for hybridization.
4) Cells were washed once with the wash solution #1, which was equilibrated at 42° C. Then cells were washed ten times with wash solution #2, which was equilibrated at 42° C.
5) Mounting solution (50% glycerol (v/v) in 1×PBS plus the nuclear stain Hoechst, (#33258; 1 ug/ml) was placed on the cells and covered with a coverslip.
6) The hybridization signal was observed under an Olympus BH10 microscope with fluorescent capabilities using a rhodamine derivative filters (excitation wavelength of 567 nm, emission wavelength of 584 nm).
The inclusion of DMSO in an in situ assay solution increased the permeation of the nucleic acid probes into the cells and gave hybridization signal in over 95% of the cells. In this Example, we show the effect of adding, in addition to DMSO, 10 percent (v/v) of an additional compound to the assay solution. The additional compounds added were: squalane (an aliphatic alkane), dodecyl alcohol (an alcohol), beta-cyclodextrin (a sugar), isopropyl palmitate (a fatty acid ester), 1,2, propanediol (an alcohol), pyrrolidinone (a lactam) and hexamethyldisiloxane (an organic silane).
In this Example, the hybridization cocktail consisted of nine volumes of HC-DMSO plus one volume of an additional compound. In the control sample, one volume of water was added instead of one volume of additional compound. As a result, in all samples, the concentration of DMSO in the cocktail was 9 percent (v/v).
The Slide In Situ Cell Preparation and Hybridization protocol was followed. The cells used were Hepg 2 cells. The probe used was an HYR probe specific for human Y chromosome α-satellite DNA repeated sequences; at its 5' end, via an Aminolink linker molecule, the probe was linked to a Texas Red moiety. A signal intensity of 4 was assigned to the slide in which the assay solution was HC plus 10% DMSO (control slide) and all other slides were rated 1, 2, 3 or 4 in comparison to the control slide, depending on whether the intensity was 1, 2, 3, or 4 times that of the control slide, respectively.
The results are an average of four independent experiments.

[1] = tested on: Human female white blood cells (karyotype XX); assay: Signal enhancers in the mounting solution after in situ hybridization (Example 6), HXR probes, fluorescent microscope; assay type: cell-based; conditions: one volume compound plus 9 volumes mounting solution; rhodamine HXR probes; water control = 1
Method: After the in situ hybridization step, the cells were washed and then modified mounting solution was added and cells were observed under the microscope for fluorescence signal. Modified mounting solution was 9 volumes of mounting solution and one volume of additional compound, which was the compound being tested for its ability to be a signal enhancer. Mounting solution consisted of 0.1% 1,4 diphenylamine (antifade) in 50% glycerol (v/v), and nuclear stain Hoechst (#33258; 1 ug/ml).
Human female white blood cells (karyotype XX) were hybridized at 85° C. for 15 minutes with female chromosome HXR probes labelled with a rhodamine fluor. Cells were washed with wash buffers #1 and #2, and then suspended in a modified mounting solution. The additional compound in the modified mounting solution was varied; as a control, water was used as the additional compound. The signal intensity was observed under the fluorescent microscope.

Row | Compound | NR Probe, mean LFL1 (α-satellite DNA) | α-SAT Probe, mean LFL1 (α-satellite DNA) | Ratio α-SAT/NR (ratio of mean LFL1) (α-satellite DNA) | Increase of DNA probe signal intensity compared to 9% DMSO alone (α-satellite DNA) | 28S RNA Probe, mean LFL1 (Hela cells) | NR Probe, mean LFL1 (Hela cells) | Ratio 28S RNA/NR (ratio of mean LFL1) (Hela cells) | Signal brightness compared to nine percent DMSO alone (Hela cells) | Fluorescent signal (Scale of 1 to 4) (Hepg 2 cells) | Signal Intensity Scale of 1 to 4 [1]
1 | CC(O)CO (centres unmarked) [1,2-propanediol] | 0.151 | 5.876 | 39 | 1,8 fold | 8.227 | 0.148 | 56 | increased the signal brightness | 2 | 4
2 | O=C1CCCN1 [2-pyrrolidinone] | 0.135 | 10.38 | 77 | 3.5 fold | 10.19 | 0.133 | 77 | increased the signal brightness | 2 | 3
3 | OC[C@H]1O[C@@H]2O[C@H]3[C@H](O)[C@@H](O)[C@@H](O[C@H]4[C@H](O)[C@@H](O)[C@@H](O[C@H]5[C@H](O)[C@@H](O)[C@@H](O[C@H]6[C@H](O)[C@@H](O)[C@@H](O[C@H]7[C@H](O)[C@@H](O)[C@@H](O[C@H]8[C@H](O)[C@@H](O)[C@@H](O[C@H]1[C@H](O)[C@H]2O)O[C@@H]8CO)O[C@@H]7CO)O[C@@H]6CO)O[C@@H]5CO)O[C@@H]4CO)O[C@@H]3CO [beta-cyclodextrin] | 0.131 | 3.720 | 29 |  | 9.593 | 0.135 | 71 | increased the signal brightness | 1.5 | 
4 | C[Si](C)(C)O[Si](C)(C)C [hexamethyldisiloxane] |  |  |  |  | 7.426 | 0.126 | 59 | increased the signal brightness | 1 | 2
5 | CCCCCCCCCCCCCCCC(=O)OC(C)C [isopropyl palmitate] | 0.117 | 5.988 | 52 | 2.4 fold | 8.057 | 0.140 | 58 | increased the signal brightness | 1.5 | 4
